Consider 14 compounds from PMC2784635 (Bioorganic & medicinal chemistry, 2008).

Molecules are shown by their SMILES.

One data set deals with plant pathogens. The experiment in a line: fungicidal activity on plants. The format is in vivo.
Data set [1] is described as follows: simulated sunlight photostability test, thin films on glass slides. In kind it is physicochemical. The note with it: for T50 glass slides / time for 50% of parent compound being lost: thin films on glass slides.
Data set [2] concerns the target cytochrome bc1 complex (beef heart mitochondria, NADH oxidase) (Bos taurus, UniProt P00157+P13272). The experiment in a line: beef heart mitochondrial NADH oxidase assay. In kind it is biochemical. The note with it: for IC50, NADH oxidase: beef heart mitochondria, Z-enamide analogues, Table 5.
Data set [3] has as its system electron transport chain at complex III. The note with it: beef heart mitochondrial respiration assay; cited from earlier work.
The next data set deals with several fungi. The note with it: cited from earlier work.
The test system of data set [4] is Plasmopara viticola (vine downy mildew). The experiment in a line: glasshouse foliar spray test, vine downy mildew. The format is in vivo.

Consider `CCCCCCCCCCCCC(=O)N/C=C\CCCC(=O)NCC(=O)OC` [Compound 12], for which the “fungicidal activity on plants” value in the data set on plant pathogens is “no fungicidal activity”. For the same compound, in data set [1], the “photostability” value is “photostability was unexpectedly reduced” and the T50 glass slides is 0.1 h. The “activity in the NADH oxidase / beef heart mitochondrial respiration assay” value in data set [2] is “very active”.

For the compound `C/C=C(C)/C=C/C=C/[C@H](OC)[C@@H](C)[C@@H](OC)[C@@H](C)CCc1oc2c(O)c(OC)cc(OC)c2c(=O)c1C` [Compound 2, stigmatellin, reference compound], in the data set with plant pathogens, the “fungicidal activity on plants” value is reported as “very little fungicidal activity”. The “activity in the NADH oxidase / beef heart mitochondrial respiration assay” value in data set [2] is “quite active”.

On to `COC(=O)CNC(=O)/C=C\C/C=C\NC(=O)/C=C(C)/C=C/[C@H](C)[C@H](OC)[C@H](C)[C@H](/C=C/c1ccccc1)OC` [Compound 8, crocacin A], for which the “time for 50% of parent compound being lost” value in data set [1] was 7 min. For the same compound, the “inhibition of the electron transport chain at complex III” value (from here on “inhibition … at complex III”) in data set [3] is “inhibited the electron transport chain at complex III”. The “inhibition of growth of fungi in vitro” value in the data set with several fungi was “inhibited the growth of several fungi in vitro”.

On to `COC(=O)CNC(=O)CCC/C=C\NC(=O)/C=C(C)/C=C/[C@H](C)[C@H](OC)[C@H](C)[C@H](/C=C/c1ccccc1)OC` [Compound 11, crocacin D, reference compound], for which, in data set [1], the T50 glass slides is 0.6 h and the “time for 50% of parent compound being lost” value is 37 min. Moreover, the “inhibition … at complex III” value in data set [3] is “inhibited the electron transport chain at complex III”. For the same compound, the “activity in the NADH oxidase / beef heart mitochondrial respiration assay” value in data set [2] is “slightly more active than crocacin A”. Besides, in the data set on several fungi, the “inhibition of growth of fungi in vitro” value is “inhibited the growth of several fungi in vitro”.

Consider `CCc1ccc(Cc2ccc(Cn3c(=O)oc4ccc(NCC(=O)OC)cc43)cc2)cc1` [Compound 21], for which the “IC50, NADH oxidase” value in data set [2] is recorded as “Inactive”.

On to `COC(=O)CNC(=O)CCC/C=C\NC(=O)c1ccc(Cc2ccc(Br)cc2)cc1` [Compound 14], for which, in data set [1], the “photostability” value is “greater photostability than the natural product” and the T50 glass slides is listed as 12 h.

Consider `COC(=O)CNC(=O)CCCc1ccccc1NC(=O)CCCCCCCCCc1ccccc1` [Compound 25], for which, in data set [2], the “activity in the NADH oxidase / beef heart mitochondrial respiration assay” value was “completely inactive” and the “IC50, NADH oxidase” value was “Inactive”.

`CCOc1ccc(Cc2ccc(C(=O)N/C=C\CCCC(=O)NCC(=O)OC)cc2)cc1` [Compound 15]: in data set [1], the “photostability” value is “greater photostability than the natural product” and the T50 glass slides is on record as 20 h.

`CCc1ccc(Cc2ccc(Cn3c(=O)oc4ccc(OCC(=O)OC)cc43)cc2)cc1` [Compound 18]: the “activity on vine downy mildew on plants” value in data set [4] was “no activity”.

For `CO[C@H]([C@H](C)[C@H](/C=C/c1ccccc1)OC)[C@@H](C)/C=C/C(C)=C/C(=O)N/C=C\C/C=C\C(=O)NCC(=O)O` [Compound 9, crocacin B], the “inhibition … at complex III” value in data set [3] is “not to be active”.

Take `CCCCCCOc1ccc(C(=O)N/C=C\CCCC(=O)NCC(=O)OC)cc1` [Compound 13]: in the data set on plant pathogens, the “fungicidal activity on plants” value was “inactive as fungicides”. The T50 glass slides in data set [1] is on record as 5 h. Further, the “activity in the NADH oxidase / beef heart mitochondrial respiration assay” value in data set [2] was “very good activity”.

For `CCc1ccc(Oc2ccc(C(=O)N[C@H]3C[C@H]3CCC(=O)NCC(=O)OC)cc2)cc1` [Compound 24], the “activity in the NADH oxidase / beef heart mitochondrial respiration assay” value in data set [2] was “only very weakly active”.

On to `COC(=O)COc1ccc2oc(=O)n(Cc3ccc(Cc4ccc(I)cc4)cc3)c2c1` [Compound 19], for which the “activity on vine downy mildew on plants” value in data set [4] was “no activity”.

With `CO[C@H]([C@H](C)[C@H](/C=C/c1ccccc1)OC)[C@@H](C)/C=C/C(C)=C/C(N)=O` [Compound 10, crocacin C], the “inhibition … at complex III” value in data set [3] is “not to be active”.
